In one test the test system is U-2 OS cells. The test is described as follows: Flow-FISH telomere length (PNA-FITC probe) and PI cell cycle analysis in treated telomerase negative U-2 OS cells. It is filed as cell-based, human. The conditions noted are these: for apoptosis (flow-FISH) / cell cycle (PI) / telomere length (flow-FISH): ACV 3 μM; for apoptosis (flow-FISH) / cell cycle (PI) / telomere length (flow-FISH) / apoptosis / cell cycle distribution / telomere length: GCV 1.5 μM, PCV 1.5 μM; for apoptosis / cell cycle distribution / telomere length: after 10 and 14 days of treatments, ACV 3.0 μM. The procedure: (§1) Both telomerase positive (HeLa) telomerase negative (U-2 OS) cell lines were used. Appropriate assays were performed to detect and confirm telomerase/L1RT specific activity in these cells.
(§2) Telomere length in ACV, GCV and PCV treated and untreated cell lines was measured by flow cytometry with a telomere-specific peptide nucleic acid (PNA) probe^23,24. To determine cell cycle distribution, cells were stained with propidium iodide (PI)^23.
(§3) The U-2 OS (osteosarcoma) and HeLa (uterine cervix) cell lines used in this study were obtained from American Type Culture Collection (Rockville, Md.). Cells were cultured in D-MEM media supplemented with 10% fetal calf serum at 37° C. in a humidified atmosphere of 5% CO2. For treatment of the cells with ACV, the media was supplemented with 3 μM of acyclovir (acyclovir, TEVA Pharm. Ind. Ltd, Israel). For treatment of the cells with GCV, the media was supplemented with 1.5 μM of GCV (Cymevene, Hoffman-La Roche). For treatment of the cells with PCV, the media was supplemented with 1.5 μM of PCV (penciclovir, Merck & Co.).
(§4) For telomere length measurement by flow cytometry, cells were stained with telomere specific FITC conjugated (C3TA2)3 PNA (Applied Biosystems) probe and contrastained with 0.06 μg/ml PI as described by Rufer et al., 1998, Telomere length dynamics in human lymphocyte subpopulations were measured by flow cytometry, Nat. Biotechnol. 16, 743-747.

For test [1], the system named is HeLa cells. The test is described as follows: Flow-FISH telomere length (PNA-FITC probe) and PI cell cycle analysis in treated telomerase positive HeLa cells. In kind it is cell-based, human. The conditions noted are these: for apoptosis (flow-FISH) / cell cycle (PI) / telomere length (flow-FISH): 10 days of treatment, ACV 3 μM, FIG. 1; for apoptosis (flow-FISH) / cell cycle (PI) / telomere length (flow-FISH) / apoptosis / cell cycle distribution / telomere length: GCV 1.5 μM, PCV 1.5 μM; for apoptosis / cell cycle distribution / telomere length: after 10 and 14 days of treatments, ACV 3.0 μM; for cell cycle distribution (PI): treated for 14 days. The procedure:
as §1, §2, §3, §4

The test system of test [2] is HeLa cells. The test is described as follows: Tumor growth progression assay, s.c. HeLa xenografts in nude mice. In kind it is in vivo, nude (nu/nu) mice. Conditions: 1×10^6 HeLa cells s.c., GCV 2 mg/ml in drinking water ad libitum from day zero. The text has this:
Exemplary in vivo assays of anti-tumor efficacy of ACV, PCV and/or GCV using nude mice subcutaneous (s.c.) tumors grown from the human HeLa cancer cell line (i.e., xenografts bearing mice) as cancer models are described below. Human cancerous cells needed for in vivo assays may be prepared, for example, as follows: Telomerase positive HeLa human cell line and telomerase negative U-2 OS human cell line are obtained from public sources. Cells are maintained in D-MEM media supplemented with 10% foetal calf serum at 37° C. in a humidified atmosphere of 5% CO2. For in vivo assay, appropriate host, e.g., nude (nu/nu) mice of about 5-7 weeks old are obtained and maintained in pathogen-free conditions. Approximately, 1×10^6 HeLa cells (and/or U-2 OS cells) contained in 200 μl of serum-free media are delivered to all animals, briefly anaesthetized with Metofane, by subcutaneous (s.c.) injection in flank. Then the mice are divided into experimental group and control group. Appropriate concentrations of ACV, PCV and/or GCV are used for tumor growth progression or regression assays. In one embodiment, impairment of s.c. tumor growth or time to progression rather than decrease in size of an established tumor (regression) is assessed. […] Tumors are measured every 2-3 days. […] Tumor volume is calculated with formula 4/3πr^3, where r is the radius of the tumor.

Consider three compounds from patent US9078901B2, “Pharmacological modulation of telomere length in cancer cells for prevention and treatment of cancer” (priority 2007, dated 2015).

Entries after “also recorded” stand apart in the source; their conditions may differ.

Take `Nc1nc2c(ncn2CCC(CO)CO)c(=O)[nH]1` [PCV]: in the test with U-2 OS cells (10 days of treatment, FIG. 2), the “apoptosis (flow-FISH)” value is “massive apoptosis”, the “cell cycle (PI)” value was “changes in cell cycle” and the “telomere length (flow-FISH)” value was “decrease in telomere length”. In the test on U-2 OS cells (14 days of treatment), the “cell cycle (PI)” value is reported as “changes in cell cycle; also recorded: G2 arrest of cell cycle”. In addition, in the test on U-2 OS cells (14 days of treatment, FIG. 3), the “apoptosis (flow-FISH)” value is recorded as “massive apoptosis” and the “telomere length (flow-FISH)” value is “decrease in telomere length”. Also, in the test on U-2 OS cells, the apoptosis entry is “massive apoptosis”, the cell cycle distribution entry is recorded as “G2 arrest” and the telomere length result was “telomere shortening”. In the test on HeLa cells [1], the “apoptosis (flow-FISH)” value was “massive apoptosis”, the “cell cycle (PI)” value was “changes in cell cycle”, the “telomere length (flow-FISH)” value is reported as “decrease in telomere length” and the apoptosis result was “massive apoptosis”. In addition, in the test on HeLa cells [1], the cell cycle distribution result was “G2 arrest”, the telomere length result is “telomere shortening” and the “cell cycle distribution (PI)” value was “G2 arrest of cell cycle”.

For the compound `Nc1nc(O)c2ncn(COC(CO)CO)c2n1` [GCV], in the test with HeLa cells [2], the s.c. tumor development entry is “remain tumor free”. In addition, in the test with U-2 OS cells (10 days of treatment, FIG. 2), the “apoptosis (flow-FISH)” value was “massive apoptosis”, the “cell cycle (PI)” value is reported as “changes in cell cycle” and the “telomere length (flow-FISH)” value was “decrease in telomere length”. For the same compound, the “cell cycle (PI)” value with U-2 OS cells (14 days of treatment) is “changes in cell cycle; also recorded: G2 arrest of cell cycle”. Besides, in the test on U-2 OS cells (14 days of treatment, FIG. 3), the “apoptosis (flow-FISH)” value is listed as “massive apoptosis” and the “telomere length (flow-FISH)” value is listed as “decrease in telomere length”. Moreover, in the test on U-2 OS cells, the apoptosis entry is given as “massive apoptosis”, the cell cycle distribution entry is listed as “G2 arrest” and the telomere length entry is given as “telomere shortening”. Moreover, in the test on HeLa cells [1], the “apoptosis (flow-FISH)” value is recorded as “massive apoptosis”, the “cell cycle (PI)” value is “changes in cell cycle”, the “telomere length (flow-FISH)” value is “decrease in telomere length” and the apoptosis result is “massive apoptosis”. Also, in the test with HeLa cells [1], the cell cycle distribution entry is given as “G2 arrest”, the telomere length entry is recorded as “telomere shortening” and the “cell cycle distribution (PI)” value is recorded as “G2 arrest of cell cycle”.

Turning to `Nc1nc2c(ncn2COCCO)c(=O)[nH]1` [ACV, 9-[2(hydromethoxy)-methyl]guanine], in the test on U-2 OS cells (10 days of treatment, FIG. 2), the “apoptosis (flow-FISH)” value was “massive apoptosis”, the “cell cycle (PI)” value was “changes in cell cycle” and the “telomere length (flow-FISH)” value is on record as “decrease in telomere length”. Also, in the test on U-2 OS cells (14 days of treatment), the “cell cycle (PI)” value is on record as “changes in cell cycle; also recorded: G2 arrest of cell cycle”. In the test on U-2 OS cells (14 days of treatment, FIG. 3), the “apoptosis (flow-FISH)” value is listed as “massive apoptosis” and the “telomere length (flow-FISH)” value is on record as “decrease in telomere length”. In addition, the “onset of changes in cell cycle distribution” value in the test on U-2 OS cells (ACV treatment) was “could be detected after only few days”. Moreover, in the test with U-2 OS cells, the apoptosis entry was “massive apoptosis”, the cell cycle distribution result is “G2 arrest” and the telomere length result is reported as “telomere shortening”. In addition, in the test on HeLa cells [1], the “apoptosis (flow-FISH)” value is listed as “massive apoptosis”, the “cell cycle (PI)” value was “changes in cell cycle”, the “telomere length (flow-FISH)” value is on record as “decrease in telomere length” and the apoptosis result was “massive apoptosis”. In addition, in the test on HeLa cells [1], the cell cycle distribution result is “G2 arrest”, the telomere length entry is reported as “telomere shortening” and the “cell cycle distribution (PI)” value is reported as “G2 arrest of cell cycle”. The “onset of changes in cell cycle distribution” value in the test with HeLa cells [1] (ACV treatment) is reported as “could be detected after only few days”.
